Patent US12552799B2, “Triazolone compounds” (Nxera Pharma UK Limited, priority 2020, dated 2026)

Tests used:
[1] = target: human adenosine A1 receptor (Homo sapiens (Human), UniProt P30542); assay: Adenosine receptor binding assay, A1 ([3H]DPCPX inhibition binding on membranes); settings: 1 nM [3H]DPCPX, 25° C., 1 h; Ki from IC50 by Cheng-Prusoff
Description: (§1) Inhibition binding assays were performed using 0.2 μg of membranes prepared from HEK293 cells infected with BacMam human adenosine A2A receptor or 1.4 μg of membranes prepared from HEK293 cells infected with BacMam human adenosine A1 receptor. Membranes were incubated in 50 mM Tris-HCl (HEK293-hA2A; pH 7.4) or 50 mM Tris-HCl, 100 mM NaCl, 10 mM MgCl2 (CHO-hA1; pH 7.4) in the presence of varying concentrations of test compound and 1 nM [^3H]ZM241385 (HEK293-hA2A) or [^3H]DPCPX (CHO-hA1) at 25° C. for 1 h. The assay was then terminated by rapid filtration onto GF/B grade Unifilter plates using a TomTec cell harvester, followed by 5×0.5 ml washes with ddH2O. Nonspecific binding was defined in the presence of 1 μM CGS15943 (HEK293-hA2A) or 1 μM DPCPX (CHO-hA1). Bound radioactivity was determined by liquid scintillation counting and inhibition curves were analysed using a four-parameter logistic equation. IC50 values were converted to Ki values with the Cheng-Prusoff equation using a KD value derived from saturation binding studies.

[2] = target: human adenosine A2A receptor (Homo sapiens (Human), UniProt P29274); assay: Adenosine receptor binding assay, A2A ([3H]ZM241385 inhibition binding on HEK293 membranes); settings: 1 nM [3H]ZM241385, 25° C., 1 h; Ki from IC50 by Cheng-Prusoff
human adenosine A2A receptor, sequence (P29274 whole entry): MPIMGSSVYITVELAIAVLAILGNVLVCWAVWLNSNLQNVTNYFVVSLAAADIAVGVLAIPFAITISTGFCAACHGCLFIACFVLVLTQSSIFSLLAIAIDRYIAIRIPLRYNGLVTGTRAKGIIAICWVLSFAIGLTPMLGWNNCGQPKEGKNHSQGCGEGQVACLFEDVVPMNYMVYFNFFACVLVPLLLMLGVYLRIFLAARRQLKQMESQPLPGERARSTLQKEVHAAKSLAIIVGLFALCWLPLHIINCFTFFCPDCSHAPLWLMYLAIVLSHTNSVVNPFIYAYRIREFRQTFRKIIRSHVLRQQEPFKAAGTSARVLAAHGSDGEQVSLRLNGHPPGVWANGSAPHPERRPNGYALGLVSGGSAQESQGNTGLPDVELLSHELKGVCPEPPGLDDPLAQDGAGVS
Description: as §1

human adenosine A1 receptor, sequence (P30542 whole entry): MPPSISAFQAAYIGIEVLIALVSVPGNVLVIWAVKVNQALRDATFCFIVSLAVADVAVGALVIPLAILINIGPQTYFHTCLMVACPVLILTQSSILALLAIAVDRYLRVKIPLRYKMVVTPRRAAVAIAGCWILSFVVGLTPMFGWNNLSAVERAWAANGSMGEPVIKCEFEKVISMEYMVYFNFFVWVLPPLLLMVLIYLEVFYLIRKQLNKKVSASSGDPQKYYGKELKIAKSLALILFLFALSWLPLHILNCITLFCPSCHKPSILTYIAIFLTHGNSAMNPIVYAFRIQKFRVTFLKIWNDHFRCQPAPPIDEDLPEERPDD

## C[C@@H]1CN(c2c(-c3ccccc3)nc(N)n3c(=O)n(CCC(F)F)nc23)C[C@H](C)O1 [Example 1-3, 5-amino-2-(3,3-difluoropropyl)-8-[(cis)-2,6-dimethylmorpholin-4-yl]-7-phenyl-[1,2,4]triazolo[4,3-c]pyrimidin-3-one]
[1]
  A1 pKi: <5.4
[2]
  A2A pKi: 7.1

## C[C@@H]1CN(c2c(-c3ccc(F)cc3)nc(N)n3c(=O)n(CCC(F)(F)F)nc23)C[C@H](C)O1 [Example 1-5, 5-amino-8-[(cis)-2,6-dimethylmorpholin-4-yl]-7-(4-fluorophenyl)-2-(3,3,3-trifluoropropyl)-[1,2,4]triazolo[4,3-c]pyrimidin-3-one]
[1]
  A1 pKi: <5.5
[2]
  A2A pKi: 7.3

## CCCn1nc2c(N3C[C@@H](C)O[C@@H](C)C3)c(-c3ccc(F)cc3)nc(N)n2c1=O [Example 1-6, 5-amino-8-[(cis)-2,6-dimethylmorpholin-4-yl]-7-(4-fluorophenyl)-2-propyl-[1,2,4]triazolo[4,3-c]pyrimidin-3-one]
[1]
  A1 pKi: 6.4
[2]
  A2A pKi: 6.9

## C[C@@H]1CN(c2c(-c3ccccc3)nc(N)n3c(=O)n(CCN4CCCCC4)nc23)C[C@H](C)O1 [Example 1-9, 5-amino-8-[(cis)-2,6-dimethylmorpholin-4-yl]-7-phenyl-2-[2-(1-piperidyl)ethyl]-[1,2,4]triazolo[4,3-c]pyrimidin-3-one]
[1]
  A1 pKi: <5.5
[2]
  A2A pKi: 6.7

## C[C@@H]1CN(c2c(-c3ccccc3)nc(N)n3c(=O)n(C[C@H]4COCCN4)nc23)C[C@H](C)O1 [Example 1-10, 5-amino-8-[(cis)-2,6-dimethylmorpholin-4-yl]-2-[[(3S)-morpholin-3-yl]methyl]-7-phenyl-[1,2,4]triazolo[4,3-c]pyrimidin-3-one]
[1]
  A1 pKi: <5.4
[2]
  A2A pKi: 6.9

## C[C@@H]1CN(c2c(-c3ccccc3)nc(N)n3c(=O)n(C[C@@H]4COCCN4)nc23)C[C@H](C)O1 [Example 1-11, 5-amino-8-[(cis)-2,6-dimethylmorpholin-4-yl]-2-[[(3R)-morpholin-3-yl]methyl]-7-phenyl-[1,2,4]triazolo[4,3-c]pyrimidin-3-one]
[1]
  A1 pKi: <5.6
[2]
  A2A pKi: 6.7

## C[C@@H]1CN(c2c(-c3ccccc3)nc(N)n3c(=O)n(C[C@H]4COCCN4C)nc23)C[C@H](C)O1 [Example 1-12, 5-amino-8-[(cis)-2,6-dimethylmorpholin-4-yl]-2-[[(3S)-4-methylmorpholin-3-yl]methyl]-7-phenyl-[1,2,4]triazolo[4,3-c]pyrimidin-3-one]
[1]
  A1 pKi: <5.4
[2]
  A2A pKi: 6.9

## C[C@@H]1CN(c2c(-c3ccccc3)nc(N)n3c(=O)n(C[C@@H]4COCCN4C)nc23)C[C@H](C)O1 [Example 1-13, 5-amino-8-[(cis)-2,6-dimethylmorpholin-4-yl]-2-[[(3R)-4-methylmorpholin-3-yl]methyl]-7-phenyl-[1,2,4]triazolo[4,3-c]pyrimidin-3-one]
[1]
  A1 pKi: <5.4
[2]
  A2A pKi: 7.1

## COc1ncccc1Cn1nc2c(N3C[C@@H](C)O[C@@H](C)C3)c(-c3ccccc3)nc(N)n2c1=O [Example 1-15, 5-amino-8-[(cis)-2,6-dimethylmorpholin-4-yl]-2-[(2-methoxy-3-pyridyl)methyl]-7-phenyl-[1,2,4]triazolo[4,3-c]pyrimidin-3-one]
[1]
  A1 pKi: 6.4
[2]
  A2A pKi: 8.4

## C[C@@H]1CN(c2c(-c3ccccc3)nc(N)n3c(=O)n(Cc4cccnn4)nc23)C[C@H](C)O1 [Example 1-16, 5-amino-8-[(cis)-2,6-dimethylmorpholin-4-yl]-7-phenyl-2-(pyridazin-3-ylmethyl)-[1,2,4]triazolo[4,3-c]pyrimidin-3-one]
[1]
  A1 pKi: 6.1
[2]
  A2A pKi: 7.2

## C[C@@H]1CN(c2c(-c3ccccc3)nc(N)n3c(=O)n(CCc4ccccc4)nc23)C[C@H](C)O1 [Example 1-17, 5-amino-8-[(cis)-2,6-dimethylmorpholin-4-yl]-7-phenyl-2-(2-phenylethyl)-[1,2,4]triazolo[4,3-c]pyrimidin-3-one]
[1]
  A1 pKi: <5.8
[2]
  A2A pKi: 7.2

## C[C@@H]1CC(c2c(-c3ccccc3)nc(N)n3c(=O)n(CCC(F)(F)F)nc23)C[C@H](C)O1 (stereo partly drawn) [Example 2-2, 5-amino-8-[(cis)-2,6-dimethyltetrahydropyran-4-yl]-7-phenyl-2-(3,3,3-trifluoropropyl)-[1,2,4]triazolo[4,3-c]pyrimidin-3-one]
[1]
  A1 pKi: <5.5
[2]
  A2A pKi: 7.4

## Cc1ccc(Cn2nc3c(-c4cc(C)c5ncoc5c4)c(-c4ccc(F)cc4)nc(N)n3c2=O)nc1 [Example 4-3, 5-amino-7-(4-fluorophenyl)-8-(4-methyl-1,3-benzoxazol-6-yl)-2-[(5-methyl-2-pyridyl)methyl]-[1,2,4]triazolo[4,3-c]pyrimidin-3-one]
[1]
  A1 pKi: 6.9
[2]
  A2A pKi: 9.8

## Cc1nc(Cn2nc3c(-c4cc(C)c5ncoc5c4)c(-c4ccc(F)cc4)nc(N)n3c2=O)c(C)o1 [Example 4-7, 5-amino-2-[(2,5-dimethyloxazol-4-yl)methyl]-7-(4-fluorophenyl)-8-(4-methyl-1,3-benzoxazol-6-yl)-[1,2,4]triazolo[4,3-c]pyrimidin-3-one]
[1]
  A1 pKi: 7.7
[2]
  A2A pKi: 9.9

## Cc1ocnc1Cn1nc2c(-c3cc(C)c4[nH]ncc4c3)c(-c3ccc(F)cc3)nc(N)n2c1=O [Example 4-8, 5-amino-7-(4-fluorophenyl)-8-(7-methyl-1H-indazol-5-yl)-2-[(5-methyloxazol-4-yl)methyl]-[1,2,4]triazolo[4,3-c]pyrimidin-3-one]
[1]
  A1 pKi: 8.4
[2]
  A2A pKi: 9.6

## [2H]c1c([2H])c([2H])c(-c2nc(N)n3c(=O)n(Cc4ncoc4C)nc3c2-c2cc(C)c3[nH]ncc3c2)c([2H])c1[2H] [Example 4-10, 5-amino-8-(7-methyl-1H-indazol-5-yl)-2-[(5-methyloxazol-4-yl)methyl]-7-(2,3,4,5,6-pentadeuteriophenyl)-[1,2,4]triazolo[4,3-c]pyrimidin-3-one]
[1]
  A1 pKi: 8.7
[2]
  A2A pKi: 10.0
